Assay results reported in ChEMBL document CHEMBL1201862, “PubChem BioAssay data set” (2004).
Active and inactive are the calls of the source.

Key:
[1] = enhancers of respiration in Yfh1-depleted yeast, dose response, Friedreich's ataxia, plus single-dose screen (AID 1465); format: functional;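 note: yeast depleted of Yfh1p frataxin homolog grown on glycerol needing respiration; WST-1 tetrazolium dye reduction as measure of cellular dehydrogenase metabolic activity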
[2] = target: T1, Estrogen receptor (Homo sapiens, UniProt P03372); assay: potentiators of ERα–SRC-1 coactivator binding, dose response, biochemical, TR-FRET, ERα LBD (AID 737)
T1 sequence (P03372 whole entry): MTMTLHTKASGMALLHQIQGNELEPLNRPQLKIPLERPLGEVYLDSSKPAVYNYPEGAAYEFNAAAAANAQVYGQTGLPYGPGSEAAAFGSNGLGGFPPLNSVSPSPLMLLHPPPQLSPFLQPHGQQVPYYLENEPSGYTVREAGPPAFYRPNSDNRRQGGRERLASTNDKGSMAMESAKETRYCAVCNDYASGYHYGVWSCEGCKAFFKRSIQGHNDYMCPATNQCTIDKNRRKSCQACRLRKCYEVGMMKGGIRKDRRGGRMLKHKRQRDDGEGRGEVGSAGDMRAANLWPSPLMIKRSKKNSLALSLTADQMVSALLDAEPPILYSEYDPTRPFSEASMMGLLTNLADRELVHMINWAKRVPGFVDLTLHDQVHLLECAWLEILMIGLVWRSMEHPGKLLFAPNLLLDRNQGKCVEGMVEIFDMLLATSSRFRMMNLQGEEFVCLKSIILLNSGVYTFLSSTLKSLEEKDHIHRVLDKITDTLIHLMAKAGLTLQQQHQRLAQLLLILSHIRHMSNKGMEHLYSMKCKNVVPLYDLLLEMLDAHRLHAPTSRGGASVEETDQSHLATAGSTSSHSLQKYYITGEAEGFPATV

[3] = M. tuberculosis H37Rv growth inhibitors, H37Rv strain (AID 1626); format: functional
[4] = target: T2, Estrogen receptor beta (Homo sapiens, UniProt Q92731); assay: ERβ–SRC-3 coactivator interaction inhibitors, confirmation, orthogonal assay, biochemical, ELISA, streptavidin-HRP readout (AID 1060)
T2 sequence (Q92731 whole entry, the tested form may be a part): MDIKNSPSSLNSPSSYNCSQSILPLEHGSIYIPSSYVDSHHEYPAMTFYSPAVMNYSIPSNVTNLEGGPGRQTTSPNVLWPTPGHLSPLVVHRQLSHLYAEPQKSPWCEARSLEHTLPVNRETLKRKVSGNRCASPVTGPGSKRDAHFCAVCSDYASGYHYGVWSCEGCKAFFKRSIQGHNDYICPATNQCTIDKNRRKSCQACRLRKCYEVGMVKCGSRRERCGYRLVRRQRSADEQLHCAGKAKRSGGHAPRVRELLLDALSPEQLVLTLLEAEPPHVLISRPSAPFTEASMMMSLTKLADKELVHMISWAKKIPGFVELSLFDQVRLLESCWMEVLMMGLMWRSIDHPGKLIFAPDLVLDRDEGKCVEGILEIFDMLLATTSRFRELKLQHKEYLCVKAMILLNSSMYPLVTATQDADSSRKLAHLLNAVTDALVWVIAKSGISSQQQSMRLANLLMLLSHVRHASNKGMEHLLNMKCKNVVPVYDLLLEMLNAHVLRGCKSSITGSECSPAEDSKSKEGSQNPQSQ

[5] = target: T3, Carboxy-terminal domain RNA polymerase II polypeptide A small phosphatase 1 (Homo sapiens, UniProt Q9GZU7); assay: inhibitors of CTDSP1, concentration-response testing, biochemical assay, absorbance-based, actives from ultra-high-throughput screening (AID 540297); format: functional
T3 sequence (Q9GZU7 whole entry): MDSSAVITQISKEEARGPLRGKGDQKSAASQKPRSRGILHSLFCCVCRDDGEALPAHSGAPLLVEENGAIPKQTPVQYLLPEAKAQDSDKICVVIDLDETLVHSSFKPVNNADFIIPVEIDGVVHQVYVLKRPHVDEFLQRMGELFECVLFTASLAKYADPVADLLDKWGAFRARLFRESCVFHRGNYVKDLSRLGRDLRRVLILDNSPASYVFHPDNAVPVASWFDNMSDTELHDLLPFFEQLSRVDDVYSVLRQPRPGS

[6] = Luminescent dose response cell-based high throughput screening assay for inhibitors of the Janus kinase 2 mutant JAK2V617F. [Related pubchem assays: 1446 (Primary screen.), 1521 (Confirmation assay.), 1486 (Counter screen.)]; format: functional
[7] = target: T4, Heat shock factor protein 1 (Mus musculus, UniProt P38532); assay: HSF1 potentiators in luciferase reporter cells, confirmation, cell-based, NIH3T3, luminescence, dose retest (AID 435004); format: functional;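 note: stress induced by proteasome inhibitor MG132 added 30 min after compound; luciferase reporter driven by HSF1 response element in NIH3T3 cells; actives raise luminescence as potentiators of the MG132 stress response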
T4 sequence (P38532 whole entry): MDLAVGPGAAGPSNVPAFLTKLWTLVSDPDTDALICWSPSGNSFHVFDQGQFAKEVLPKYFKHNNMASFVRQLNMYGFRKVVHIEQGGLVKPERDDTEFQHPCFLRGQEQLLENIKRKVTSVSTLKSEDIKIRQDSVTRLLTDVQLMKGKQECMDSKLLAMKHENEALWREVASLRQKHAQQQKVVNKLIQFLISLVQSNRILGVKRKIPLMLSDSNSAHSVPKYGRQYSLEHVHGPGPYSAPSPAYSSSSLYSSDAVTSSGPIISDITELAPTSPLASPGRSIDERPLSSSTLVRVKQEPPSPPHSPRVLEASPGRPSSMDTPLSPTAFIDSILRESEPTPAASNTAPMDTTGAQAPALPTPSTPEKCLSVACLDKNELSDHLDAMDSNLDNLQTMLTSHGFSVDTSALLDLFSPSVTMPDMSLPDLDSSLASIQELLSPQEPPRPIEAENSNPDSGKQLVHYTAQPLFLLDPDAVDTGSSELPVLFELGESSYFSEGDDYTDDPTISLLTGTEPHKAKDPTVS

[8] = target: T5, RNA-binding protein pos-1 (Caenorhabditis elegans, UniProt G5EF15); assay: inhibitors of POS-1/mex-3 RNA binding, dose response, biochemical, fluorescence polarization (AID 1964);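 note: purified POS-1 fused to maltose binding protein made in E. coli; potency of compounds blocking POS-1 binding to fluorescent RNA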
T5 sequence (G5EF15 whole entry): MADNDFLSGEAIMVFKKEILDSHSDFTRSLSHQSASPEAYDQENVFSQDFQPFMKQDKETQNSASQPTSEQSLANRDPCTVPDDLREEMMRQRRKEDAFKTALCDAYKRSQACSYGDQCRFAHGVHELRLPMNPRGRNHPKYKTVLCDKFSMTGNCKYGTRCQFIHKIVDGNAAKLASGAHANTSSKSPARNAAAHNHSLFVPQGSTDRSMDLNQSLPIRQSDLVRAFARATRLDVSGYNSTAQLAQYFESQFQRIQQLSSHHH

[9] = target: T6, Zinc finger protein mex-5 (Caenorhabditis elegans, UniProt Q9XUB2); assay: MEX-5/TCR-2 RNA interaction inhibitors, dose response, biochemical, C. elegans, fluorescence polarization (AID 1960)
T6 sequence (Q9XUB2 whole entry): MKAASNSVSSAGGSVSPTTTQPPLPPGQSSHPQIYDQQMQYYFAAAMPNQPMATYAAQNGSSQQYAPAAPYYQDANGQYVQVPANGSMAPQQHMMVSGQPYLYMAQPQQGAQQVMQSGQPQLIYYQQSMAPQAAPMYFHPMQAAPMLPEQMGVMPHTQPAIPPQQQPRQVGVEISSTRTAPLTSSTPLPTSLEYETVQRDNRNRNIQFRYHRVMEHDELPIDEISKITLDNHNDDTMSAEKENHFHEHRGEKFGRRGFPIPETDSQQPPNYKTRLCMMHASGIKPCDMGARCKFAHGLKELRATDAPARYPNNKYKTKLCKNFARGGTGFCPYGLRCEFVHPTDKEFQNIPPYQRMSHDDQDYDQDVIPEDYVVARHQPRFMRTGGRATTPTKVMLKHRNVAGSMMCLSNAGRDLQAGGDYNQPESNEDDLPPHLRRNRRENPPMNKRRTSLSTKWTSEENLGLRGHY

[10] = target: T2, Estrogen receptor beta
[11] = target: Luciferin 4-monooxygenase (Photinus pyralis, UniProt P08659); assay: firefly luciferase enzyme inhibitors, dose response, biochemical, luminescence (AID 1891)
Sequence of Luciferin 4-monooxygenase (P08659 whole entry): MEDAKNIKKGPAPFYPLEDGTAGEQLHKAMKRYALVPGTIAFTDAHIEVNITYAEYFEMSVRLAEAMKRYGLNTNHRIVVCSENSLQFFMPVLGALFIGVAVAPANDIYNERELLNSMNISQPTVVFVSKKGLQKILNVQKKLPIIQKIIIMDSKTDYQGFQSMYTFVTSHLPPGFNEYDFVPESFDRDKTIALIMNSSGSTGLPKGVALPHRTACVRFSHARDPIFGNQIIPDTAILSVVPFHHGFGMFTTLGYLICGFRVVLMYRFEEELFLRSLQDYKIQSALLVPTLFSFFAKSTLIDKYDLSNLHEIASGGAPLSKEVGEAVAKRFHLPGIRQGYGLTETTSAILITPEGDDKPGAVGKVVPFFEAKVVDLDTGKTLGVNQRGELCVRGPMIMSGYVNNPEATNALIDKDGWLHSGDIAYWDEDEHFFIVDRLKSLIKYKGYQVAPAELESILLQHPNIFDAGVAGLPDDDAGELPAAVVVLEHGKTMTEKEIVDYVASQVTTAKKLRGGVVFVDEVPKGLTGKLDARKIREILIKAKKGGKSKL

[12] = Luminescence Cell-Based Dose Confirmation HTS to Identify Inhibitors of Platelet Dense Granule Release. [Related pubchem assays: 1663 (Primary HTS), 1678 (Summary of Project)]; format: functional
[13] = Fluorescence Cell-Based Dose Response to Identify Inhibitors of Thrombin Receptor-Activating Peptide SFLLRN-Mediated P-Selectin Induction on Platelets. [Related pubchem assays: 1663 (Primary HTS), 1889 (retest at dose ), 1891 (counterscreen), 1678 (Project Summary)]; format: functional
[14] = P. falciparum 3D7-ScDHODH growth inhibitors, dose response, SYBR Green, dry powder samples (AID 1159570); format: functional, cell-based;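 note: parasite growth measured after 72 hours of compound exposure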
[15] = HepG2 cell cytotoxicity, dose response, cytotoxicity control, plate reader, dry powder samples (AID 1159569); format: functional, cell-based;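 note: inhibitor potency with signal falling toward the positive control level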
[16] = P. falciparum Dd2 growth inhibitors, dose response, SYBR Green, dry powder samples, set 9 (AID 1159568); format: functional, cell-based
[17] = P. falciparum Dd2 growth inhibitors, dose response, SYBR Green, cherry-picked samples (AID 1159567); format: functional, cell-based
[18] = P. falciparum Dd2 growth inhibitors, dose response, SYBR Green, dry powder samples (AID 1159566); format: functional, cell-based;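 note: potency for growth inhibition with lower SYBR green DNA signal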
[19] = HepG2 cell cytotoxicity, dose response, cytotoxicity control, cherry-picked samples (AID 1159577); format: functional, cell-based
[20] = Plasmodium falciparum Dd2 Sybr green parasite growth Measured in Cell-Based and Microorganism Combination System Using Plate Reader - 2153-01_Inhibitor_Dose_DryPowder_Activity_Set3.; format: functional
[21] = P. falciparum ATP4 D1247Y mutant growth inhibitors, dose response, NITD609-resistant line, SYBR Green, dry powder (AID 1159571); format: functional, cell-based;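 note: parasites synchronized at ring stage by sorbitol before testing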
[22] = target: G-protein coupled receptor 183 (Homo sapiens, UniProt P32249); assay: SAR confirmation of small molecule antagonists of the EBI2 receptor via a luminescent beta-arrestin assa.; format: functional
Sequence of G-protein coupled receptor 183 (P32249 whole entry): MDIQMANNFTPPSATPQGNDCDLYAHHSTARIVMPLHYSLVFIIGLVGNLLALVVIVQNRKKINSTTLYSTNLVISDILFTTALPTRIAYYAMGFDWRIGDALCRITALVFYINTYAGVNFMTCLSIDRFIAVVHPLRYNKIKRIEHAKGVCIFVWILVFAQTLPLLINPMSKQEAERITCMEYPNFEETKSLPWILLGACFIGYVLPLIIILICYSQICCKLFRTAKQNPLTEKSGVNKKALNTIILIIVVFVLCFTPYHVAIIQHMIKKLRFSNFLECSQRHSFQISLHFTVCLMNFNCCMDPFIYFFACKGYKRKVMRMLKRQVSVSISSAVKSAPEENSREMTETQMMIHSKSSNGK

CC(C(=O)O)N1C(=O)/C(=C/c2cccn2C)SC1=S (centres undefined)
EC50 [1]: > 100000 nM (active)

COc1ccc(-c2cn3c(C)c(C(=O)Nc4ccncc4)sc3n2)cc1
EC50 [2]: 18900 nM (active)

COc1ccc2nc(O)c(CN(C(=O)NC3CCCCC3)C3CCCCC3)cc2c1
IC50 [3]: > 100000 nM (active)

N#CC1=C(N)n2c(s/c(=C\c3ccco3)c2=O)=C(C#N)C1c1ccco1 (centres undefined)
IC50 [4]: 1920 nM (not active) | IC50 [5]: 3440 nM (active)

Cc1cc(SCC(=O)N/N=C/c2ccc(O)c(O)c2)c(C)cc1Br
IC50 [6]: 1650 nM (active) | EC50 [7]: > 260000 nM (inactive)

ON=C1/C(=N\O)CC2(C/C1=N/O)OCCO2
EC50 [8]: > 300000 nM (not active) | EC50 [9]: 13000 nM (active) | IC50 [10]: 14100 nM (active)

CCOc1cc(/C=N/NC(N)=O)cc(Br)c1OCC(=O)Nc1ccccc1C
EC50 [11]: > 112000 nM (not active) | EC50 [12]: 1550 nM (active) | EC50 [13]: < 1000 nM (active)

COc1ccccc1C#Cc1ccc([C@H]2[C@@H](C#N)N(C(=O)C3CCCC3)[C@H]2CO)cc1
AC50 [14]: 715 nM (active) | AC50 [15]: 23800 nM (active) | AC50 [16]: 493 nM (active) | AC50 [17]: 873 nM (active) | AC50 [18]: 474 nM (active) | AC50 [19]: 34100 nM (active) | AC50 [20]: 1160 nM (active) | AC50 [21]: 808 nM (active)

O=C(/C=C/c1ccc(F)cc1)N1CCN(S(=O)(=O)C2=Cc3ccccc3CC2)CC1
IC50 [22]: 1.15 nM (active)

CC(C)c1ccc(S(=O)(=O)N2CCN(C(=O)/C=C/c3ccc(F)cc3)CC2)cc1
IC50 [22]: 24.3 nM (active)

CCCC(=O)Nc1ccc2c(c1)OC[C@@H](C)N(Cc1ccc(F)cc1)C[C@@H](C)[C@H](OC)CN(C)C2=O
AC50 [14]: 9670 nM (active) | AC50 [15]: 75800 nM (active) | AC50 [17]: 1920 nM (active) | AC50 [18]: 753 nM (active) | AC50 [20]: 2510 nM (active) | AC50 [21]: 2440 nM (active)
